“Also recorded” adds a separate entry of the source. Where two headings read alike, the source gives them in different places.
Assays:
[1] = system: human sperm acrosomal membrane; assay: Sperm acrosomal membrane integrity, confocal laser scanning microscopy (FITC-Pisum sativum lectin); assay type: cell-based; conditions: for acrosome status in confocal images: 500 μM, 6 hours
Description: The percentages of sperm with an intact acrosome following a 6 hour treatment with and without increasing concentrations (31.2 μM to 500 μM) o f th e three NNIs (S-DABO, F-PBT and D-PBT in comparison to N-9 were evaluated by CLSM. Ethanol permeabilized and airdried sperm smears were stained sequentially with the three fluorescent markers, FITC-Pisum sativum lectin, TOTO-3 iodide, and Nile red (Molecular Probes, Eugene, Oreg.) because their targets are different (acrosome, nucleus, and membrane lipid respectively). Samples were examined under a BioRad MRC-1024 Laser Scanning Confocal Microscope (BioRad Laboratories, Hercules, Calif.) equipped with a krypton/argon mixed gas laser (excitation lines 488, 568, and 647 nm) and mounted on a Nikon Eclipse E800 series upright microscope. The fluorescence emission of fluorescein, TOTO-3 iodide, and Nile red from the acrosomal region, nucleus, and the plasma membrane of sperm after ethanol permteabilization were si multan eously detected using the […], and 680 DF32 emission/filter, respectively. Confocal images were obtained using a Nikon 100×(NA 1.35) objective lens and Kalman collection filter. Digitized images were saved on a Jaz disk (Iomega Corporation, Roy, UT) and process ed using Lasersharp Bio-Rad) with the Adobe Photoshop software (Adobe Systems, Mountain View, Calif.). Final images were printed on a Fuji Pictrography 3000 (Fuji Photo Film Co., Tokyo, Japan) color printer.

[2] = system: HTLVIIIB strain of HIV-1; assay: p24 antigen production in HIV-1 (HTLVIIIB) infected PBMCs; conditions: Human immunodeficiency virus 1, PBMC
Description: The HTLVIIIB strain of HIV-1 was propagated in CCRF-CEM cells and the virus stocks obtained from cell-free supernatants of infected cells were titered using MT-2 cells. Cell-free supernatants were harvested and frozen in 1 ml aliquots at −70° C. Titration of the stock virus was performed using MT-2 cells and the cytopathic effect of the virus used in this study was typical of HIV-1 on MT-2 cells.
Cells were cultured for 7 days in 96-well microtiter plates (100 μl/well; 2×10^6 cells/ml, triplicate wells) in the presence and absence of various concentrations (0.001 μM to 100 μM) of the anti-HIV agents. Cells from non-infected controls were handled in the same way except the virus was omitted from the preparation. Aliquots of culture supernatants were removed from the wells on the 7th day after infection for RT assays and p24 antigen, as previously described in the following references: Erice et al., ANTIMICROB AG CHEMOTHER, 37:835-838 (1993); Uckun et al., ANTIMICROB AGENTS CHEMOTHER, 42:383-388 (1998); and Zarling et al., Nature 347:92-95 (1990).
The p24 enzyme immunoassay was the unmodified kinetic assay available commercially (Coulter Corporation/Immunotech, Inc., Westbrook, Me.). The assay uses a murine monoclonal antibody to the HIV core protein coated onto microwell strips to which the antigen present in the test culture supernatant sample binds. […] The plates were read on a ELISA reader (Molecular Devices, Sunnyvale, Calif.) at 650 nm and p24 levels, expressed as ng/ml, were calculated against known standards supplied by Coulter/Immunotech, Inc. Percent viral inhibition was calculated by comparing the p24 values for the test substance-treated infected cells with the p24 values for untreated infected cells (i.e., virus controls).
Percent inhibition of virus replication was calculated by comparing the p24 antigen values or RT activity from the test drug-treated infected cells with p24 antigen values or RT activity from untreated infected cells. The anti-HIV activity of compounds was expressed as the IC50 values, calculated from the dose-response curves, and defined as the drug concentration that decreases the HIV-1 RT activity or p24 antigen production in HIV-1 infected PBMCs, by 50%.

[3] = system: normal human endocervical epithelial cells (CrEC-En 4312); assay: MTT cell proliferation assay, endocervical epithelial cells; assay type: cell-based; conditions: for IC50: Homo sapiens, Epithelial cell, read-out: IC50 endocervical epithelial cells; for SI (Selectivity Index) endocervical epithelial cells: ratio of IC50 to EC50 (sperm)
Description: (§1) Normal human ectocervical (CrEC 4627) and endocervical epithelial cells (CrEC-En 4312) were obtained from Clonetics, (San Diego, Calif.) and propagated in T-150 cm^2 tissue culture flasks (Corning Corp., Corning, N.Y.) in small airway epithelial cell basal medium (Clonetics) supplemented with 50 μg/ml BPE, 0.5 μg/ml hydrocortisone, 0.5 μg/ml hEGF, 0.1 μg/ml retinoic acid, […] trasferrin, 5 μg/ml insulin, 5 μg/ml epinephrine, and 0.5 mg/ml BSA-FAF.
(§2) Briefly, cells were harvested with 0.125% (w/v) trypsin-0.02% EDTA (GIBCO) from exponential-phase maintenance cultures and centrifuged (300 g×5 minutes). After suspension and counting, cells were dispensed within triplicate 96-well tissue culture plates in 100 μl volumes. […] NNIs were reconstituted in DMSO to a concentration of 100 mM. […] Control wells with medium containing 0.25% of DMSO alone were included as controls. Culture plates were then incubated for 24 hour before adding 10 μl of MTT solution (5 mg/ml in PBS) to each well. Wells containing only medium and MTT were used as control for each plate. The tetrazolium/formazan reaction was allowed to proceed for 4 hours at 37° C., and then 100 μl of the solubilization buffer (10% sodium dodecyl sulfate in 0.1% HCl) was added to all wells and mixed thoroughly to dissolve the dark blue formazan crystals.
(§3) After an overnight incubation at 37° C., the optical densities (OD) at 540 nm were measured using a 96-well multiscanner autoreader with the solubilization buffer serving as blank, To translate the OD540 values into the number of live cells in each well, the OD540 values were compared to those on standard OD540-versus-cell number curves generated for each cell line. The percent survival was calculated using the formula: % survival=Live cell number [test]/Live cell number [control]×100. All assays were run in triplicate and the results were expressed as IC50 values. The IC50 was defined as the concentration required for 50% reduction in cell survival.

[4] = system: human sperm; assay: Sperm immobilizing activity, concentration-dependent, CASA; assay type: cell-based; conditions: for EC50: Homo sapiens, Sperm, read-out: Spermicidal activity EC50 (sperm motility); for effect on sperm motility: concentrations as high as 500 μM
Description: All donor sperm specimens were obtained after informed consent and in compliance with the guidelines of the Hughes Institute Institutional Review Board. Motile sperm (≧10×10^6/ml), were suspended in 1 ml of Biggers, whitten, and Whittingam's medium (BWW) containing 25 mM HEPES (Irvine Scientific, Santa Ana, Calif.), and 0.3% BSA in the presence and absence of serial two-fold dilutions of test substance (500 μM to 31.2 μM) in 1% DMSO. The stock solutions of NNIs were prepared in DMSO (100 mM) and diluted in assay medium to yield the desired concentrations. Corresponding volume of DMSO (1%) was added to control tubes. N-9 was diluted in BWW-0.3% BSA (pH 7.4) to yield the desired concentrations (31.2 μM to 500 μM). After 3 hours of incubation at 37° C., the percentage of motile sperm was evaluated by CASA by procedures as described in D'Cruz et al., BIOL REPROD, 58:1515-1526, (1998); and D'Cruz et al., MOL HUM REPROD, 4:683-693 (1998). The percent motilities were compared with sham-treated control suspensions of motile sperm. The spermicidal activity of test compounds was expressed as the EC50 (the final concentration of the compound in medium that decreases the proportion of motile sperm by 50%).
(§4) For CASA, 4 μl of each sperm suspension were loaded into two 20-μm Microcell chambers in a counting chamber at 37° C. At least 5-8 fields per chamber were scanned for analysis using a Hamilton Thome Integrated Visual Optical System (IVOS), version 10 instrument (Hamilton Thorne Research Inc., Danvers, Mass.). Each field was recorded for 30 seconds. The computer calibrations were set at 30 frames at a frame rate of 30/second. Other settings were as follows: minimum contrast 8; minimum size 6; low-size gate, 1.0; high-size gate, 2.9; low-intensity gate, 0.6; high-intensity gate, 1.4; phase-contrast illumination; low path velocity at 10 μm/s, and threshold straightness at 80%; and magnification factor, 1.95.
(§5) The sperm kinematics parameters that were determined included numbers of motile (MOT) and progressively (PRG) motile sperm; curvilinear velocity (VCL; a measure of the total distance traveled by a given sperm during the acquisition divided by the time elapsed); average path velocity (VAP; the spatially averaged path that eliminates the wobble of the sperm head), straight line velocity (VSL; the straight-line distance from beginning to end of track divided by time taken), beat cross frequency (BCF; frequency of sperm head crossing sperm average path), the amplitude of lateral head displacement (ALH; the mean width of sperm head oscillation), and the derivatives, straightness (STR=VSL/VAP×100) and linearity (LIN=VSL/VCL×100; departure of sperm track from a straight line). Data from each individual cell track were recorded and analyzed. At least 200 motile sperm were a nalyzed for each aliquot sampled.

[5] = system: normal human ectocervical epithelial cells (CrEC 4627); assay: MTT cell proliferation assay, ectocervical epithelial cells; assay type: cell-based; conditions: for IC50: Homo sapiens, Epithelial cell, read-out: IC50 ectocervical epithelial cells; for SI (Selectivity Index) ectocervical epithelial cells: ratio of IC50 to EC50 (sperm)
Description: as §1, §2, §3

[6] = molecular target: purified recombinant HIV RT (Human immunodeficiency virus type 1 group M subtype B, UniProt P04585); assay: RT inhibitory activity against purified recombinant HIV RT (cell-free Quan-T-RT scintillation proximity assay)
Description: In the assay, a DNA/RNA primer/template is bound to SPA beads via a biotin/streptavidin linkage. The primer DNA is a 16-mer oligo(T) which has been annealed to a poly(rA) template. The primer/template is bound to a streptavidin-coated SPA bead. ^3H-TTP is incorporated into the primer by reverse transcription. In brief, ^3H-TTP, at a final concentration of 0.5 Ci/sample was diluted in RT assay buffer (49.5 mM Tris-HCl, pH 8.0, 80 mM KCl, 10 mM MgCl2, 10 mM DTT, 2.5 mM EGTA, 0.05% Nonidet-P-40), and added to annealed DNA/RNA bound to SPA beads. The compound being tested was added to the reaction mixture at 0.001 μM-100 μM concentrations. […] The reaction was stopped by addition of 0.2 ml of 120 mM EDTA. The samples were counted in an open window using a Beckman LS 7600 instrument (Beckman Instruments, Fullerton, Calif.).

[7] = system: human sperm; assay: Time-dependent sperm immobilization and sperm kinematic parameters, CASA; assay type: cell-based; conditions: 1 mM
Description: To test the effect of duration of incubation on SIA of spermicidal NNIs, motile fractions of sperm (10^7/ml) were incubated at 37° C. in BWW-0.3% BSA in the presence of 1 mM F-PBT, S-DABO in 1% DMSO or 1% DMSO alone as vehicle control. At timed intervals of 5 or 10 minutes, duplicate aliquots (4-μl) were transferred to two 20 μm Microcell chambers (Conception Technologies) and sperm motility was assessed by CASA for a duration of 60 minutes.
as §4, §5

[8] = 168 h, read-out: IC50 p24 (HTLVIIIB)
[9] = in Homo sapiens, read-out: IC50[p24], HIV replication in PBMCs
[10] = 3 hours incubation at 37° C., CASA

| SMILES | acrosome status in confocal images [1] | IC50 [2, 8] [nM] | IC50 ([3]; 24 h) [mM] | SI (Selectivity Index) endocervical epithelial cells [3] | EC50 ([4]; 3 h) [µM] | IC50 ([5]; 24 h) [mM] | SI (Selectivity Index) ectocervical epithelial cells [5] | IC50 [2, 9] [nM] | spermicidal activity (in words) [4] | EC50 [4, 10] [µM] | IC50 [6] [nM] | effect on sperm motion parameters (PRG, VCL, VAP, VSL, STR, LIN, BCF, ALH) ([4]; CASA) | effect on sperm motility [4] | further results |
| --- | --- | --- | --- | --- | --- | --- | --- | --- | --- | --- | --- | --- | --- | --- |
| CCCCCCCCCc1ccc(OCCOCCOCCOCCOCCOCCOCCOCCOCCO)cc1 [Compound N-9, nonoxynol-9, reference compound] | no green fluorescence; also recorded: only acrosome-reacted sperm | 2200 | 0.011 | 0.13 | 81 | 0.015 | 0.18 |  |  |  |  |  |  | acrosomal staining (FIG. 5A) ([1]; after 6 hours of incubation): complete loss of acrosomal staining |
| CSCSc1nc(Cc2ccccc2)c(C(C)C)c(=O)[nH]1 [S-DABO, 5-isopropyl-2-[(methylthiomethyl)thio]-6-(benzyl)-pyrimidin-4-(1H)-one] | acrosomes remained intact; also recorded: None of the FIGS. 5B, 5C, or 5D show increased acrosome reaction | < 1 |  | >19.8 |  |  | >19.8 | < 1 | concentration- and time-dependent spermicidal activity | 202 | 6100 |  |  | IC50 ([3]; 24 hours treatment, MTT): > 4 mM; IC50 ([3]; MTT dose survival curves): > 4 mM; IC50 ([5]; 24 hours treatment, MTT): > 4 mM; IC50 ([5]; MTT dose survival curves): > 4 mM |
| COc1ccc(OC)c(CCNC(=S)Nc2ccc(Br)cn2)c1 [D-PBT, N-[2-(2,5-dimethoxyphenethyl)]-N′-[2-(5-bromopyridyl)]-thiourea] |  | < 1 |  |  |  |  |  | < 1 |  | > 500 | 100 | did not alter the sperm motion parameters | did not affect sperm motility |  |
| Fc1ccccc1CCNC(=S)Nc1ccc(Br)cn1 [F-PBT, N-[2-(2-fluorophenethyl)]-N′-[2-(5-bromopyridyl)]-thiourea] | acrosomes remained intact; also recorded: None of the FIGS. 5B, 5C, or 5D show increased acrosome reaction | < 1 | > 1 | >6.8 | 147 | > 1 | >6.8 | < 1 | concentration- and time-dependent spermicidal activity |  | 400 |  |  | IC50 [3]: > 1 mM; time required for 50% motility loss of progressively motile sperm ([7]; 37° C.): 10 min; beat cross frequency (BCF) and amplitude of lateral head displacement (ALH) ([7]; time-dependent, 60 minutes): relatively stable; linearity (LIN) and straightness (STR) ([7]; time-dependent, 60 minutes): remained relatively constant; movement characteristics of surviving sperm (VCL, VAP, VSL) ([7]; time-dependent, 60 minutes): significant changes; IC50 [5]: > 1 mM |
| S=C(NCCc1ccccn1)Nc1ccc(Br)cn1 [Trovirdine, reference compound] |  | 7 |  |  | > 500 |  |  |  |  |  |  | did not alter the sperm motion parameters | did not affect sperm motility |  |
